Measured values as given in patent US10604514B2, “6-(5-membered heteroaryl)isoquinolin-3-yl carboxamides and preparation and use thereof” (Samumed, LLC, priority 2017, dated 2020).
Read-outs that look alike come from different tables or passages of the source.

How the values were obtained:
[1] = test system: Wnt activity (Sp5-Luc reporter in SW480 colon carcinoma cells); test: Wnt activity screening assay (Sp5-Luc reporter gene assay); type: cell-based, human; settings: Homo sapiens; for EC50: Sp5-Luc reporter, SW480 cells, 36 to 48 hours
Source text: The screening assay for Wnt activity is described as follows. Reporter cell lines can be generated by stably transducing cancer cell lines (e.g., colon cancer) or primary cells (e.g., IEC-6 intestinal cells) with a lentiviral construct that includes a Wnt-responsive promoter driving expression of the firefly luciferase gene.
SW480 colon carcinoma cells were transduced with a lentiviral vector expressing luciferase with a human Sp5 promoter consisting of a sequence of eight TCF/LEF binding sites. SW480 cells stably expressing the Sp5-Luc reporter gene and a hygromycin resistance gene were selected by treatment with 150 μg/mL of hygromycin for 7 days. These stably transduced SW480 cells were expanded in cell culture and used for all further screening activities. Each compound was dissolved in DMSO as a 10 mM stock and used to prepare compound source plates. Serial dilution (1:3, 10-point dose-response curves starting from 10 μM) and compound transfer was performed using the ECHO 550 (Labcyte, Sunnyvale, Calif.) into 384-well white solid bottom assay plates (Greiner Bio-One) with appropriate DMSO backfill for a final DMSO concentration of 0.1%. For Sp5-Luc reporter gene assays, the cells were plated at 4,000 cells/well in 384-well plates with a DMEM medium containing 1% fetal bovine serum, and 1% Penicillin-Streptomycin and incubated for 36 to 48 hours at 37° C. and 5% CO2. Following incubation, 15 μl of BriteLite Plus luminescence reagent (Perkin Elmer) was added to each well of the 384-well assay plates. The plates were placed on an orbital shaker for 2 min and then luminescence was quantified using the Envision (Perkin Elmer) plate reader. Readings were normalized to DMSO only treated cells, and normalized activities were utilized for EC50 calculations using the dose-response log (inhibitor) vs. response -variable slope (four parameters) nonlinear regression feature available in GraphPad Prism 5.0 (or Dotmatics).

[2] = test system: Tau phosphorylation at Ser396 (pSer396), SH-SY5Y cells; test: Tau phosphorylation at Ser396 (pSer396) in SH-SY5Y cells, ELISA/western blot; type: cell-based, human;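 also: cell lysates probed for reduced Tau pSer396 via ELISA (colorimetric) or western blot (chemiluminescence), both with one shared pSer396 antibody, EC50 for lowering phosphorylation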
[3] = test system: SW480 colon carcinoma cells; test: Cell viability assay (CellTiter-Glo) in SW480 cells; type: cell-based, human; settings: Homo sapiens, 96 h; cell viability, SW480 cells, four days, CellTiter-Glo;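 also: SW480 cells stably carrying an Sp5-luciferase TCF/LEF reporter, luminescent ATP signal as viability measure, DMSO-treated cells as control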
Protocol: Representative compounds were screened using the assay procedure to assess the effect on cell viability as described below.
For the Cell Viability Assays, the cells were plated at 2,000 cells/well in 384-well plates with a DMEM medium containing 1% fetal bovine serum, and 1% Penicillin-Streptomycin and incubated for four days hours at 37° C. and 5% CO2. Eight replicates of DMSO-treated cells served as controls and cells treated with compound were performed in duplicate.
After incubation, 10 μL of CellTiter-Glo (Promega) was added to each well allowed to incubate for approximately 12 minutes.
Dose-response curves were generated and EC50 concentration values were calculated using non-linear regression curve fit in the GraphPad Prism (San Diego, Calif.) or Dotmatics' Studies Software (Bishops Stortford, UK).

[4] = test system: LL29 cells (primary human fibroblasts derived from IPF patients), α-smooth muscle actin; test: Inhibition of fibrotic process: αSMA in TGF-β1-treated primary human fibroblasts from IPF patients (LL29 cells); type: cell-based; settings: Homo sapiens, Fibroblast, 96 h; % αSMA-positive LL29 cells, TGF-β1 20 ng/mL, 4 days
Source text: Representative compounds were screened using primary human fibroblasts (derived from IPF patients) treated with TGF-β1 to determine their ability to inhibit the fibrotic process.
Primary human fibroblasts derived from IPF patients (LL29 cells) [^1Xiaoqiu Liu, et. al., “Fibrotic Lung Fibroblasts Show Blunted Inhibition by cAMP Due to Deficient cAMP Response Element-Binding Protein Phosphorylation”, Journal of Pharmacology and Experimental Therapeutics (2005), 315(2), 678-687; ^2Watts, K. L., et. al., “RhoA signaling modulates cyclin D1 expression in human lung fibroblasts; implications for idiopathic pulmonary fibrosis”, Respiratory Research (2006), 7(1), 88] were obtained from American Type Culture Collection (ATCC) and expanded in F12 medium supplemented with 15% Fetal Bovine Serum and 1% Penicillin/Streptomycin.
Each compound was dissolved in DMSO as a 10 mM stock and used to prepare compound source plates. Serial dilution (1:2, 11-point dose-response curves from […] to 0.94 nM) and compound transfer was performed using the ECHO 550 (Labcyte, Sunnyvale, Calif.) into 384-well clear bottom assay plates (Greiner Bio-One) with appropriate DMSO backfill for a final DMSO concentration of 0.1%. LL29 cells were plated at 1,500 cells/well in 70 μL/well F12 medium supplemented with 1% Fetal Bovine Serum. TGF-β1 (Peprotech; 20 ng/mL) was added to the plates to induce fibrosis (ref. 1 and 2 above). Wells treated with TGF-31 and containing DMSO were used as positive control, and cells with only DMSO were negative control. Cells were incubated at 37° C. and 5% CO2 for 4 days. Following incubation for 4 days, SYTOX green nucleic acid stain (Life Technologies [Thermo Fisher Scientific]) was added to the wells at a final concentration of 1 μM and incubated at room temperature for 30 min. Cells were then fixed using 4% formaldehyde (Electron Microscopy Sciences), washed 3 times with PBS followed by blocking and permeabilization using 3% Bovine Serum Albumin (BSA; Sigma) and 0.3% Triton X-100 (Sigma) in PBS. Cells were then stained with antibody specific to α-smooth muscle actin (αSMA; Abcam) (ref. 1 and 2 above) in 3% Bovine Serum Albumin (BSA; Sigma) and 0.3% Triton X-100 (Sigma) in PBS, and incubated overnight at 4° C. Cells were then washed 3 times with PBS, followed by incubation with Alexa Flor-647 conjugated secondary antibody (Life Technologies [Thermo Fisher Scientific]) and DAPI in 3% Bovine Serum Albumin (BSA; Sigma) and 0.3% Triton X-100 (Sigma) in PBS at room temperature for 1 hour. Cells were then washed 3 times with PBS and plates were sealed for imaging. αSMA staining was imaged by excitation at 630 nm and emission at 665 nm and quantified using the Compartmental Analysis program on the CellInsight CX5 (Thermo Scientific). Dead or apoptotic cells were excluded from analysis based on positive SYTOX green staining. % of total cells positive for αSMA were counted in each well and normalized to the average of 11 wells treated with TGF-β1 on the same plate using Dotmatics' Studies Software.

[5] = test system: IL-6; test: IL-6 inhibition in LPS-stimulated human peripheral blood mononuclear cells (HTRF); type: cell-based; settings: Homo sapiens, PBMC; IL-6, LPS-stimulated huPBMCs, HTRF
Protocol: Fresh Normal PB MNC (Catalog # PB001, AllCells, Alameda, Calif.) were shipped overnight at 4° C. and resuspended in Roswell Park Memorial Institute (RPMI) 1640 Medium, with GlutaMAX Supplement (Catalog #61870127, ThermoFisher Scientific, Waltham, Mass.) supplemented with 1% Penicillin-Streptomycin (Catalog #151401633 ThermoFisher Scientific, Waltham, Mass.) and 1% fetal bovine serum (FBS) (Catalog #16140089, ThermoFisher Scientific, Waltham, Mass.) assay media.
Fresh normal human peripheral blood mononuclear cells (huPBMCs) were resuspended in 1% FBS-RPMI assay media with 1% Penicillin-Streptomycin 1% to a cell concentration of 1×10e6 cells/mL. Each compound was dissolved in DMSO (Catalog # D8418-100 ml, Sigma-Aldrich, St. Louis, Mo.) as a 10 mM stock and used to prepare compound source plates. Serial dilution (1:3, 10-point dose-response curves starting from 10 μM) and compound transfer was performed using the ECHO 550 (Labcyte, Sunnyvale, Calif.) into 384-well white Proxiplate-Plus assay plates (Catalog #6008289, PerkinElmer, Shelton, Conn.) with appropriate DMSO backfill for a final DMSO concentration of 0.25%. huPBMCs were plated at 5000 cells/well in the 384-well Proxiplate-Plus assay plates and incubated at 37° C.-5% CO2 for 2 hours. 50 ng/mL of Lipopolysaccharides from Escherichia coli 0111:B4 (Catalog # L5293-2 ML, Sigma-Aldrich, St. Louis, Mo.) was added after 2 hours and cells were incubated for another 22 hours at 37° C.-5% CO2. After 22 hour incubation, a mixture of anti-IL6 XL665 and anti-IL-6 Cryptate diluted in reconstitution buffer (Catalog #62IL6PEC, Cisbio Inc., Bedford, Mass.) was added to each well. Following incubation for 3 hours at room temperature, Homogeneous Time-Resolved Fluorescence (HTRF) was measured using the Envision (Perkin Elmer, Shelton, Conn.) at 665 nm and […]. The ratio of fluorescence at 665 nm to 620 nm was used as a readout for IL-6 quantification. All samples were processed in duplicate. Readings were normalized to DMSO treated cells and normalized activities were utilized for EC50 calculations. EC50 was determined using software generated by Dotmatics Limited (Windhill Bishops Stortford Herts, UK) using the Levenberg-Marquardt 4 parameter fitting procedure with finite different gradients.

[6] = Homo sapiens, SH-SY5Y cells, overnight (16-18 h), read-out: pSer396 Tau EC50

Structure (SMILES) | EC50 [1] | EC50 [2, 6] | EC50 [3] | EC50 [5] | EC50 [4] | inhibition at 10 µM ([1]; SW480, read-out: percent inhibition at 10 μM) | EC50 ([2]; Homo sapiens, SH-SY5Y, read-out: EC50 in the Tau assay) | EC50 ([2]; control DYRK1A inhibitors, printed '>10 M' (μ probably lost), read-out: EC50 in the Tau assay)
[2H]c1c(NC(=O)C2CCN(CC(C)C)CC2)ncc2ccc(-c3cnn(C)c3)cc12 [Compound 6, 1-Isobutyl-N-(6-(1-methyl-1H-pyrazol-4-yl)isoquinolin-3-yl-4-d)piperidine-4-carboxamide] | 0.82 µM | 0.103 µM | 1.24 µM | 0.967 µM | 0.132 µM |  |  | 
[2H]c1nc(NC(=O)c2ccnc(N3CCN(C(C)C)CC3)c2)cc2cc(-c3cnn(C)c3)ccc12 [Compound 9, 2-(4-Isopropylpiperazin-1-yl)-N-(6-(1-methyl-1H-pyrazol-4-yl)isoquinolin-3-yl-1-d)isonicotinamide] | 0.036 µM | > 10 µM | 0.106 µM | 1.87 µM | 0.157 µM |  |  | 
[2H]C1([2H])CCC([2H])([2H])N1c1cc(C(=O)Nc2cc3cc(-c4cnc(C)n4C)ccc3cn2)ccn1 [Compound 73, N-(6-(1,2-Dimethyl-1H-imidazol-5-yl)isoquinolin-3-yl)-2-(pyrrolidin-1-yl-2,2,5,5-d4)isonicotinamide] | 2.06 µM | > 10 µM |  | 2.07 µM | 1.71 µM |  |  | 
[2H]C1([2H])OC([2H])([2H])C([2H])([2H])N(c2cc(C(=O)Nc3cc4cc(-c5cnc(C)n5C)ccc4cn3)ccn2)C1([2H])[2H] [Compound 74, N-(6-(1,2-Dimethyl-1H-imidazol-5-yl)isoquinolin-3-yl)-2-(morpholino-d8) isonicotinamide] | > 10 µM | > 10 µM | 0.479 µM | 1.13 µM | 1.25 µM | 30.5% |  | 
[2H]C1([2H])N(c2cc(C(=O)Nc3cc4cc(-c5cncn5C)ccc4cn3)ccn2)C([2H])([2H])C([2H])([2H])C([2H])([2H])C1([2H])[2H] [Compound 75, N-(6-(1-Methyl-1H-imidazol-5-yl)isoquinolin-3-yl)-2-(piperidin-1-yl-d10) isonicotinamide] | 3.5 µM | > 10 µM | 0.443 µM | 0.857 µM | 0.45 µM |  |  | 
[2H]C1([2H])N(c2cc(C(=O)Nc3cc4cc(-c5cnc(C)n5C)ccc4cn3)ccn2)C([2H])([2H])C([2H])([2H])C1([2H])[2H] [Compound 77, N-(6-(1,2-Dimethyl-1H-imidazol-5-yl)isoquinolin-3-yl)-2-(pyrrolidin-1-yl-d8)isonicotinamide] | 3.35 µM | > 10 µM |  | 1.94 µM | 2.15 µM |  |  | 
Cc1nnc(-c2cc(F)c3cnc(NC(=O)C4CCC(NCC(F)F)CC4)cc3c2)s1 (stereo not shown) [Compound 204] |  | > 10 µM |  |  |  |  |  | 
COc1ccc2c(c1)[nH]c1c(C)nccc12 [Harmine, reference compound] |  |  |  |  |  |  | > 10 µM | 
CCN1/C(=C/C(C)=O)Sc2ccc(O)cc21 [Indy, reference compound] |  |  |  |  |  |  |  | > 10 µM

Continued, in another order:

EC50 [1] | EC50 [2, 6] | EC50 [3] | EC50 [5] | Structure (SMILES) | EC50 [4] | inhibition at 10 µM ([1]; SW480, read-out: percent inhibition at 10 μM) | EC50 ([2]; Homo sapiens, SH-SY5Y, read-out: EC50 in the Tau assay) | EC50 ([2]; control DYRK1A inhibitors, printed '>10 M' (μ probably lost), read-out: EC50 in the Tau assay)
0.028 µM | > 10 µM | 0.099 µM | 0.932 µM | [2H]c1nc(NC(=O)c2ccnc(N3CCN(CC)CC3)c2)cc2cc(-c3cnn(C)c3)ccc12 [Compound 8, 2-(4-Ethylpiperazin-1-yl)-N-(6-(1-methyl-1H-pyrazol-4-yl)isoquinolin-3-yl-1-d)isonicotinamide] | 0.095 µM |  |  | 
3.36 µM | > 10 µM | 0.462 µM | 0.927 µM | [2H]C1([2H])OC([2H])([2H])C([2H])([2H])N(c2cc(C(=O)Nc3cc4cc(-c5cncn5C)ccc4cn3)ccn2)C1([2H])[2H] [Compound 76, N-(6-(1-Methyl-1H-imidazol-5-yl)isoquinolin-3-yl)-2-(morpholino-d8) isonicotinamide] | 0.611 µM |  |  | 
3.73 µM | > 10 µM | 0.468 µM | 1.05 µM | [2H]C1([2H])N(c2cc(C(=O)Nc3cc4cc(-c5cncn5C)ccc4cn3)ccn2)C([2H])([2H])C([2H])([2H])C1([2H])[2H] [Compound 78, N-(6-(1-Methyl-1H-imidazol-5-yl)isoquinolin-3-yl)-2-(pyrrolidin-1-yl-d8) isonicotinamide] | 0.526 µM |  |  | 
4.04 µM | > 10 µM | 0.464 µM | 1.34 µM | [2H]C1([2H])CCC([2H])([2H])N1c1cc(C(=O)Nc2cc3cc(-c4cncn4C)ccc3cn2)ccn1 [Compound 79, N-(6-(1-methyl-1H-imidazol-5-yl)isoquinolin-3-yl)-2-(pyrrolidin-1-yl-2,2,5,5-d4)isonicotinamide] | 0.572 µM |  |  | 
